Columns and labels:
Progesterone receptor = target: T1, Progesterone receptor (Homo sapiens, UniProt P06401); test: Displacement of TAMRA labeled mifepristone at human progesterone receptor in insect cell
T1 sequence (P06401 whole entry): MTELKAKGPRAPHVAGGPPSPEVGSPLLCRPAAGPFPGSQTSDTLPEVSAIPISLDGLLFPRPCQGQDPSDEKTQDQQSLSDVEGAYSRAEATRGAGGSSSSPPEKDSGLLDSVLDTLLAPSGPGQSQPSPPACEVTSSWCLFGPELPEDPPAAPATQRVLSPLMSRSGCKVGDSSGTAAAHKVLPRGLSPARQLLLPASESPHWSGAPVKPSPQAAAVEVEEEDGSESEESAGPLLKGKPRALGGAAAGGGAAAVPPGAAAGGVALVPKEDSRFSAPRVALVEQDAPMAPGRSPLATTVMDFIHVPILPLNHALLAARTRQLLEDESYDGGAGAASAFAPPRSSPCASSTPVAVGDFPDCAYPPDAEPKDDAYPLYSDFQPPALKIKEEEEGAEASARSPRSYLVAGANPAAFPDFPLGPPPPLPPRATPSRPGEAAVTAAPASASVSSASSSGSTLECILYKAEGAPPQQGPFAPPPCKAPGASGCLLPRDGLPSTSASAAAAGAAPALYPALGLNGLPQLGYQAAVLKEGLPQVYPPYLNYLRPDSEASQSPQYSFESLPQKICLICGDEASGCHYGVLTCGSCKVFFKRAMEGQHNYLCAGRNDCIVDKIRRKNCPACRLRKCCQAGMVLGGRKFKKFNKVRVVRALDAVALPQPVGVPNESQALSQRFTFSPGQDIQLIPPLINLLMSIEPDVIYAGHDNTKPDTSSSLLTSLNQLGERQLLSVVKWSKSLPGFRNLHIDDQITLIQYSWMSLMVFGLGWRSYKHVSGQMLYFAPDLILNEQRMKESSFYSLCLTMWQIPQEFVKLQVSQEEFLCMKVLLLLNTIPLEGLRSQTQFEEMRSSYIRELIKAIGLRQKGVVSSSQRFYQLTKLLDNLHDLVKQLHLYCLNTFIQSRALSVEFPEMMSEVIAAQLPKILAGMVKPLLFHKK

[1] = target: T2, Mineralocorticoid receptor (Homo sapiens, UniProt P08235); test: Displacement of TAMRA labeled dexamethasone at human mineralocorticoid receptor in insect cell
T2 sequence (P08235 whole entry): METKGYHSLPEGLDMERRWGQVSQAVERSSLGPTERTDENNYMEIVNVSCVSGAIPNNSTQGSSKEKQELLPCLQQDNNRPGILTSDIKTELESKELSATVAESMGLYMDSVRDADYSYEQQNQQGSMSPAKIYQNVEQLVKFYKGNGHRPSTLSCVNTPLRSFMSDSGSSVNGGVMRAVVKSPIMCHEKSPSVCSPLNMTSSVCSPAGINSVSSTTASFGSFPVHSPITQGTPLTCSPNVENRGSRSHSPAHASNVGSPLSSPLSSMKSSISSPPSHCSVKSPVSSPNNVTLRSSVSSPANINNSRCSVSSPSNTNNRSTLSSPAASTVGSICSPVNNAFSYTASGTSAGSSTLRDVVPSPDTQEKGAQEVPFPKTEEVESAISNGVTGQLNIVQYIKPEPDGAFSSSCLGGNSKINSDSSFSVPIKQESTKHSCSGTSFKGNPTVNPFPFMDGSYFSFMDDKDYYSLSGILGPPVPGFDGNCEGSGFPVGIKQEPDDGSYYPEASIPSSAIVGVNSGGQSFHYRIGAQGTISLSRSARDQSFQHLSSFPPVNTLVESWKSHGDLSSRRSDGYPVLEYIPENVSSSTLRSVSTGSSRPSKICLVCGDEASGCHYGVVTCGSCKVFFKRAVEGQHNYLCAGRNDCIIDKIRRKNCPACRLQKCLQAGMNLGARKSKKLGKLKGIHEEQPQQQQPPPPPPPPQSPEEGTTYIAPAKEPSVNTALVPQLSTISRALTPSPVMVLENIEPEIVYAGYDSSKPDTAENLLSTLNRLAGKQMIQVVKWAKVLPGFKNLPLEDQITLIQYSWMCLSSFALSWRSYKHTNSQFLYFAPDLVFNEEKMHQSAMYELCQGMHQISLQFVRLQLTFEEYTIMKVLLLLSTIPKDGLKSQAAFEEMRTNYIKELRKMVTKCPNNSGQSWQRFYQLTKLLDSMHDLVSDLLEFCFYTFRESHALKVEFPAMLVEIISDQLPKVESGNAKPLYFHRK

Glucocorticoid receptor = target: T3, Glucocorticoid receptor (Homo sapiens, UniProt P04150)
T3 sequence (P04150 whole entry): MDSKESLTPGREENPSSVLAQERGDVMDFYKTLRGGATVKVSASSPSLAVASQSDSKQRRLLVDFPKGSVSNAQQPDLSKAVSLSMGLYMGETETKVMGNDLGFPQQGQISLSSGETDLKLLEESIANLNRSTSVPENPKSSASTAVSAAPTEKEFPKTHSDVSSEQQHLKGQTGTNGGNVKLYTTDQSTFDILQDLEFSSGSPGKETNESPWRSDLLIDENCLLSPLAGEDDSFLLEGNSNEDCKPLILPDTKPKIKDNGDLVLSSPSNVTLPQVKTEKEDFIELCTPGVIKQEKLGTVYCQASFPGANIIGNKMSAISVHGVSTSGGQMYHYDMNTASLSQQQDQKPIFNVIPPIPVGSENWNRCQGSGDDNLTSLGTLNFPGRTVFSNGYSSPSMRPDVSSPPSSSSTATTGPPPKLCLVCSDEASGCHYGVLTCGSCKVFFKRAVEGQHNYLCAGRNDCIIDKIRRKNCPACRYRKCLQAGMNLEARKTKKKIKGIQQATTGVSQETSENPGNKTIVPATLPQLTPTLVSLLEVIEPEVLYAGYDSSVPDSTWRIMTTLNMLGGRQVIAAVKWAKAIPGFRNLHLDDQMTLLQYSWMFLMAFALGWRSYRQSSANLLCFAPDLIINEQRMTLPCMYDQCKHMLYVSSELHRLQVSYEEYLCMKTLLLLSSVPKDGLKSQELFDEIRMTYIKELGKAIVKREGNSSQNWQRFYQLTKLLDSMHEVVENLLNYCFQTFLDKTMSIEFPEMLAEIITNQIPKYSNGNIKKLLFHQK

HFF [2] = test: Antiinflammatory activity assessed as inhibition of IL1 stimulated IL6 production in HFF cells by transrepression assay; type: functional, cell-based; conditions: Homo sapiens
HFF [3] = test: Antiinflammatory activity assessed as upregulation of aromatase in HFF cells by transactivation assay relative to dexamethasone; type: functional, Homo sapiens; design: concentration or dose not given beside the values
HFF [4] = test: Antiinflammatory activity assessed as upregulation of aromatase in HFF cells by transactivation assay; type: functional, cell-based; conditions: Homo sapiens
HFF [5] = test: Antiinflammatory activity assessed as inhibition of IL6 production in HFF cells by transrepression assay relative to dexamethasone; type: functional, Homo sapiens

IC50 (Progesterone receptor) [µM] | IC50 [1] [µM] | IC50 (Glucocorticoid receptor) [µM] | SMILES | EC50 (HFF [2]) [µM] | Activity (HFF [3]) [%] | EC50 (HFF [4]) [µM] | Efficacy (HFF [5]) [%]
> 2 | 1.4 | 0.12 | COc1ccc(F)cc1C(C)(C)CC(O)(Cc1cccc2ccccc12)C(F)(F)F (stereo not given) |  |  |  | 
> 2 | > 2 | 0.945 | COc1ccc(F)cc1C(C)(C)CC(O)(Cc1ccc(C)cc1)C(F)(F)F (stereo not given) |  |  |  | 
> 1.42 | > 1.42 | 1.25 | COc1ccc(CC(O)(CC(C)(C)c2cc(F)ccc2OC)C(F)(F)F)cc1 (stereo not given) |  |  |  | 
> 2 | 0.715 | 0.101 | COc1ccc(F)cc1C(C)(C)CC(O)(Cc1ccccc1Cl)C(F)(F)F (stereo not given) |  |  |  | 
> 1.3 | > 1.3 | 0.61 | COc1ccc(F)cc1C(C)(C)CC(O)(Cc1ccccc1)C(F)(F)F (stereo not given) |  |  |  | 
1.3 | 0.9 | 0.076 | COc1ccc(F)cc1C(C)(C)CC(O)(Cc1cccc(Cl)c1Cl)C(F)(F)F (stereo not given) |  |  |  | 
> 1.05 | > 1.05 | 0.58 | COc1ccc(F)cc1C(C)(C)CC(O)(Cc1cccc(C)c1)C(F)(F)F (stereo not given) |  |  |  | 
0.665 | 0.875 | 0.068 | COc1ccc(F)cc1C(C)(C)CC(O)(Cc1ccc(Cl)cc1Cl)C(F)(F)F (stereo not given) |  |  |  | 
> 2 | 0.94 | 0.046 | COc1ccc(F)cc1C(C)(C)CC(O)(Cc1cc(C)cc(Cl)c1)C(F)(F)F (stereo not given) | 0.125 | 80 | 0.245 | 79
> 2 | 0.45 | 0.064 | COc1ccc(F)cc1C(C)(C)CC(O)(Cc1c(C)ccc2ccccc12)C(F)(F)F (stereo not given) |  |  |  | 
> 2 | 1.1 | 0.58 | COc1ccc(F)cc1C(C)(C)CC(O)(Cc1c(Cl)cccc1Cl)C(F)(F)F (stereo not given) |  |  |  | 
> 2 | 0.4 | 0.081 | COc1ccc(F)cc1C(C)(C)CC(O)(Cc1cccc(C#N)c1)C(F)(F)F (stereo not given) |  |  |  | 
> 2 | 1.8 | 0.34 | COc1ccc(F)cc1C(C)(C)CC(O)(Cc1ccc(Cl)cc1)C(F)(F)F (stereo not given) |  |  |  | 
> 0.354 | 0.22 | 0.055 | COc1ccc(F)cc1C(C)(C)CC(O)(Cc1cc(C)cc(C)c1)C(F)(F)F (stereo not given) | 0.28 | 80 | 0.285 | 55
> 1.6 | 1.6 | > 1.6 | COc1ccc(F)cc1C(C)(C)CC(O)(c1ccccc1)C(F)(F)F (stereo not given) |  |  |  | 
> 2 | 1.35 | 0.37 | COc1ccc(F)cc1C(C)(C)CC(O)(Cc1ccccc1F)C(F)(F)F (stereo not given) |  |  |  | 

IC50 (Progesterone receptor) [µM] | IC50 [1] [µM] | IC50 (Glucocorticoid receptor) [µM] | SMILES | EC50 (HFF [2]) [µM] | Activity (HFF [3]) [%] | EC50 (HFF [4]) [µM] | Efficacy (HFF [5]) [%]
1.8 | 0.345 | 0.019 | COc1ccc(F)cc1C(C)(C)CC(O)(Cc1ccc(C=O)cc1Cl)C(F)(F)F (stereo not given) |  |  |  | 
> 2 | 0.76 | 0.06 | COc1ccc(F)cc1C(C)(C)CC(O)(Cc1cc(Cl)cc(Cl)c1)C(F)(F)F (stereo not given) |  |  |  | 
> 0.512 | > 0.512 | 0.205 | COc1ccc(F)cc1C(C)(C)CC(O)(Cc1ccccc1Br)C(F)(F)F (stereo not given) |  |  |  | 
0.28 | 0.5 | 0.022 | COc1ccc(F)cc1C(C)(C)CC(O)(Cc1ccc(C#N)cc1F)C(F)(F)F (stereo not given) | > 2 | 15 | 0.66 | 40
> 2 | 0.535 | 0.045 | COc1ccc(F)cc1C(C)(C)CC(O)(Cc1cc(Cl)ccc1Cl)C(F)(F)F (stereo not given) |  |  |  | 
> 2 | 0.65 | 0.02 | COc1ccc(F)cc1C(C)(C)CC(O)(Cc1ccc(C=O)cc1)C(F)(F)F (stereo not given) |  |  |  | 
 |  |  | COc1ccc(F)cc1C(C)(C)CC(O)(C(=O)Nc1ccc2c(=O)onc(C)c2c1)C(F)(F)F (stereo not given) | > 2 | 0 | > 2 | 20
> 0.74 | > 0.74 | 1.13 | COc1ccc(F)cc1C(C)(C)CC(O)(CCCc1ccccc1)C(F)(F)F (stereo not given) |  |  |  | 
0.14 | 0.32 | 0.017 | COc1ccc(F)cc1C(C)(C)CC(O)(Cc1ccc(C#N)cc1Cl)C(F)(F)F (stereo not given) | 0.02 | 20 | 0.03 | 60
 |  |  | C[C@@H]1C[C@H]2[C@@H]3CCC4=CC(=O)C=C[C@]4(C)[C@@]3(F)[C@@H](O)C[C@]2(C)[C@@]1(O)C(=O)CO [DEXAMETHASONE] | 0.0005 |  | 0.002 | 
> 2 | > 2 | 0.55 | COc1ccc(F)cc1C(C)(C)CC(O)(Cc1cccc(Cl)c1)C(F)(F)F (stereo not given) |  |  |  | 
0.345 | 0.51 | 0.03 | COc1ccc(F)cc1C(C)(C)CC(O)(Cc1ccc(C#N)cc1)C(F)(F)F (stereo not given) | > 2 | 0 | > 2 | 0
> 1.3 | > 1.3 | > 1.3 | COc1ccc(F)cc1C(C)(C)CC(O)(CCc1ccccc1)C(F)(F)F (stereo not given) |  |  |  | 
> 1.13 | > 1.13 | 0.855 | COc1ccc(F)cc1C(C)(C)CC(O)(Cc1ccccc1C)C(F)(F)F (stereo not given) |  |  |  | 
1.2 | 1.05 | 0.058 | COc1ccc(F)cc1C(C)(C)CC(O)(Cc1ccc(C)c2ccccc12)C(F)(F)F (stereo not given) | > 2 |  |  | 9

SMILES | IC50 (Progesterone receptor) [µM] | IC50 [1] [µM] | IC50 (Glucocorticoid receptor) [µM] | EC50 (HFF [2]) [µM] | Activity (HFF [3]) [%] | EC50 (HFF [4]) [µM] | Efficacy (HFF [5]) [%]
COc1ccc(F)cc1C(C)(C)CC(O)(Cc1ccc(C#N)c2ccccc12)C(F)(F)F (stereo not given) | 0.325 | 0.43 | 0.021 | 0.07 | 103 | 0.26 | 92
COc1ccc(F)cc1C(C)(C)CC(O)(Cc1ccc2ccccc2c1)C(F)(F)F (stereo not given) | > 2 | > 2 | 0.275 |  |  |  | 
